The values that follow come from patent US11066414B2, “Cot modulators and methods of use thereof” (Gilead Sciences, Inc., priority 2015, dated 2021).

In one assay the test system is TNFα. Put plainly: Cot Monocyte TNFα Cell Based Assay.
In the next assay the target is Human Cot (Homo sapiens (Human), UniProt P41279). Description: High Throughput Cot Biochemical Assay. The note with it: Cot HTRF (TR-FRET) biochemical assay. Background: In TR-FRET formats the signal depends on donor and acceptor labels being close together.
Human Cot, sequence (P41279 30-397): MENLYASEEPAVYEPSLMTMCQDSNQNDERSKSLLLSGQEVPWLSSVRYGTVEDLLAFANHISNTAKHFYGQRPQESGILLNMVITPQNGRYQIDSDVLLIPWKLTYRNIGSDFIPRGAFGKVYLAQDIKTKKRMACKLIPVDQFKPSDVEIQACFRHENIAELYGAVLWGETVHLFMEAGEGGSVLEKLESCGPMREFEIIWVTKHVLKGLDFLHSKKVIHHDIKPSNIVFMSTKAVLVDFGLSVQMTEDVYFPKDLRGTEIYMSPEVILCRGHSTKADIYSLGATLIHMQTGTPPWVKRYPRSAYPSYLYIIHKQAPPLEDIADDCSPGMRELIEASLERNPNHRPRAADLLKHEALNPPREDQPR
Where [1] appears, read: Homo sapiens, Monocyte, read-out: EC50 TNF, LPS-stimulated human monocytes, TNFα.
The mark [2] stands for this setting: read-out: EC50 TNF, LPS-stimulated human monocytes, TNFα.

Each structure is given as a SMILES string. pEC50, pIC50: −log10 of the molar value. Like-named read-outs stand apart in the source and are kept apart here.

Consider `CCc1ncccc1[C@H](Nc1cc(Cl)c2ncc(C#N)c(NCC(C)(C)C)c2c1)c1cn(C2(C(F)(F)F)CC2)nn1` [Example 600, (S)-8-chloro-6-(((2-ethylpyridin-3-yl)(1-(1-(trifluoromethyl)cyclopropyl)-1H-1,2,3-triazol-4-yl)methyl)amino)-4-(neopentylamino)quinoline-3-carbonitrile], for which the pEC50 (commonly the EC50 on a negative log10 scale, so that one unit is a factor of ten) in the assay on TNFα (setting [1]) is 6.95. The pIC50 (in general, the negative decadic logarithm of the IC50, by convention in mol/L) at Human Cot (IC50 HTRF) is 8.30.
As to `Cc1nc(F)ccc1[C@H](Nc1cc(C#N)c2ncc(C#N)c(NCC(C)(C)C)c2c1)c1cn(Cc2c(F)cccc2F)nn1` [Example 601, (S)-6-(((1-(2,6-difluorobenzyl)-1H-1,2,3-triazol-4-yl)(6-fluoro-2-methylpyridin-3-yl)methyl)amino)-4-(neopentylamino)quinoline-3,8-dicarbonitrile], the pEC50 with TNFα (setting [1]) was 7.49. The molecule further showed a pIC50 against Human Cot (IC50 HTRF) of 8.40.
In the case of `CCc1ncccc1[C@H](Nc1cc(C#N)c2ncc(C#N)c(NCC(C)(C)C)c2c1)c1cn(C2(C(F)(F)F)CC2)nn1` [Example 602, (S)-6-(((2-ethylpyridin-3-yl)(1-(1-(trifluoro-methyl)cyclopropyl)-1H-1,2,3-triazol-4-yl)methyl)amino)-4-(neopentylamino)-quinoline-3,8-dicarbonitrile], the pEC50 in the assay on TNFα (setting [1]) was 7.16. Besides, on Human Cot (IC50 HTRF), the pIC50 is 8.52.
On to `Cn1ncc2cccc([C@H](Nc3cc(Cl)c4ncc(C#N)c(NCC(C)(C)C)c4c3)c3cn(C4(C(F)F)CC4)nn3)c21` [Example 603, (S)-8-chloro-6-(((1-(1-(difluoromethyl)cyclo-propyl)-1H-1,2,3-triazol-4-yl)(1-methyl-1H-indazol-7-yl)methyl)amino)-4-(neopentyl-amino)quinoline-3-carbonitrile], for which the pEC50 in the assay on TNFα (setting [1]) was 6.97. Besides, the pIC50 on Human Cot (IC50 HTRF) was 8.15.
For the molecule `Cn1ncc2cccc([C@H](Nc3cc(C#N)c4ncc(C#N)c(NCC(C)(C)C)c4c3)c3cn(C4(C(F)F)CC4)nn3)c21` [Example 605], in the assay on TNFα (setting [2]), the pEC50 is 7.52. Also, the negative-log IC50 (pIC50) at Human Cot (read-out: IC50 HTRF) was 8.52.
Turning to `CCc1ncccc1[C@H](Nc1cc(C#N)c2ncc(C#N)c(NCC(C)(C)C)c2c1)c1cn(C2(C(F)F)CC2)nn1` [Example 606, (S)-6-(((1-{1-(difluoromethyl)-cyclopropyl)-1H-1,2,3-triazol-4-yl)(2-ethylpyridin-3-yl)methyl)amino)-4-(neopentylamino)quinoline-3,8-dicarbonitrile], in the assay on TNFα (setting [1]), the pEC50 was 7.57. At Human Cot (IC50 HTRF), this molecule had a pIC50 of 8.70.
For `Cc1nc(F)ccc1[C@@H](Nc1cc(Cl)c2ncc(C#N)c(NC3[C@H]4CCC[C@H]34)c2c1)c1cn(C2(C(F)(F)F)CC2)nn1` (stereo partly drawn) [Example 607, 4-(((lR,5S)-bicyclo[3.1.0]hexan-6-yl)amino)-8-chloro-6-(((S)-(6-fluoro-2-methylpyridin-3-yl)(1-(1-(trifluoromethyl)cyclopropyl)-1H-1,2,3-triazol-4-yl)methyl)amino)quinoline-3-carbonitrile], in the assay with TNFα (setting [2]), the pEC50 was 6.65. The pIC50 on Human Cot (read-out: IC50 HTRF) was 7.68.
With `Cc1nc(F)ccc1[C@H](Nc1cc(Cl)c2ncc(C#N)c(N[C@H]3[C@@H]4COC[C@@H]43)c2c1)c1cn(C2(C(F)(F)F)CC2)nn1` [Example 608, 4-(((lR,5S,6r)-3-oxabicyclo[3.1.0]hexan-6-yl)amino)-8-chloro-6-(((S)-(6-fluoro-2-methylpyridin-3-yl)(1-(1-(trifluoromethyl)cyclo-propyl)-1H-1,2,3-triazol-4-yl)methyl)amino)-quinoline-3-carbonitrile], in the assay with TNFα (setting [2]), the pEC50 was 6.50. Besides, at Human Cot (read-out: IC50 HTRF), the negative logarithm of the IC50 (pIC50) was 7.38.
Turning to `Cn1ncc2c([C@H](Nc3cc(C#N)c4ncc(C#N)c(NCC(C)(C)C)c4c3)c3cn(C4CC4)nn3)cccc21` [Example 609, (S)-6-(((1-cyclopropyl-1H-1,2,3-triazol-4-yl)(1-methyl-1H-indazol-4-yl)methyl)amino)-4-(neopentylamino)quinoline-3,8-dicarbonitrile], the pEC50 with TNFα (setting [1]) was 7.34. For the same molecule, at Human Cot (IC50 HTRF), the pIC50 is 8.70.
Regarding `Cc1nc(F)ccc1[C@H](Nc1cc(C#N)c2ncc(C#N)c(NCC(C)(C)C)c2c1)c1cn(C2(CO)CC2)nn1` [Example 610, (S)-6-(((6-fluoro-2-methylpyridin-3-yl)(1-(1-(hydroxymethyl)cyclopropyl)-1H-1,2,3-triazol-4-yl)methyl)amino)-4-(neopentylamino)quinoline-3,8-dicarbonitrile], the pEC50 in the assay with TNFα (setting [1]) is 6.70. The same molecule showed a pIC50 against Human Cot (IC50 HTRF) of 8.70.
For `Cc1nc(F)ccc1[C@H](Nc1cc(Cl)c2ncc(C#N)c(N[C@@H](c3ccccc3)C3CC3)c2c1)c1cn(C2(C(F)(F)F)CC2)nn1` [Example 611, 8-chloro-4-(((R)-cyclopropyl(phenyl)methyl)-amino)-6-(((S)-(6-fluoro-2-methylpyridin-3-yl)(1-(1-(trifluoromethyl)cyclopropyl)-1H-1,2,3-triazol-4-yl)methyl)amino)quinoline-3-carbonitrile], in that order: 6.64 and 7.70.
In the case of `Cc1nc(F)ccc1[C@H](Nc1cc(Cl)c2ncc(C#N)c(NCC(C)(C)c3ccccc3)c2c1)c1cn(C2(C(F)(F)F)CC2)nn1` [Example 612, (S)-8-chloro-6-(((6-fluoro-2-methylpyridin-3-yl)(1-(1-(trifluoromethyl)cyclopropyl)-1H-1,2,3-triazol-4-yl)methyl)amino)-4-((2-methyl-2-phenylpropyl)amino)quinoline-3-carbonitrile], the pEC50 in the assay with TNFα (setting [1]) is 6.77. On Human Cot (IC50 HTRF), this molecule had a pIC50 of 7.96.
For `Cc1nc(F)ccc1[C@H](Nc1cc(C#N)c2ncc(C#N)c(NCC(C)(C)c3ccccc3)c2c1)c1cn(C2(C(F)(F)F)CC2)nn1` [Example 614, (S)-6-(((6-fluoro-2-methylpyridin-3-yl)(1-(1-(trifluoromethyl)cyclopropyl)-1H-1,2,3-triazol-4-yl)methyl)amino)-4-((2-methyl-2-phenylpropyl)amino)quinoline-3,8-dicarbonitrile], in that order: 6.81 and 8.05.
On to `Cc1ncsc1[C@H](Nc1cc(Cl)c2ncc(C#N)c(NCC(C)(C)C)c2c1)c1cn(C2(C(F)F)CC2)nn1` [Example 619, (R)-8-chloro-6-(((1-(1-(difluoromethyl)-cyclopropyl)-1H-1,2,3-triazol-4-yl)(4-methylthiazol-5-yl)methyl)amino)-4-(neopentylamino)quinoline-3-carbonitrile], for which the pEC50 in the assay on TNFα (setting [1]) is 6.72. On Human Cot (IC50 HTRF), the pIC50 was 8.15.
The matching figures for `Cc1scnc1[C@H](Nc1cc(Cl)c2ncc(C#N)c(NCC(C)(C)C)c2c1)c1cn(C2(C(F)F)CC2)nn1` [Example 620, (S)-8-chloro-6-(((1-(1-(difluoromethyl)cyclo-propyl)-1H-1,2,3-triazol-4-yl)(5-methylthiazol-4-yl)methyl)amino)-4-(neopentylamino)quinoline-3-carbonitrile]: 6.00 and 6.99.
For the molecule `Cc1nc(F)ccc1[C@H](Nc1cc(C#N)c2ncc(C#N)c(NCC(C)(C)C)c2c1)c1cn(C2(C3CC3)CC2)nn1` [Example 621, (S)-6-(((1-([1,1′-bi(cyclopropan)]-1-yl)-1H-1,2,3-triazol-4-yl)(6-fluoro-2-methylpyridin-3-yl)methyl)amino)-4-(neopentylamino)quinoline-3,8-dicarbonitrile], in the assay with TNFα (setting [1]), the pEC50 was 7.92. Moreover, the pIC50 on Human Cot (IC50 HTRF) was 9.00.
